We go through 3 substances from patent US8399610B2, “HPV vaccine comprising peptides from host cell proteins” (University College Cardiff Consultants Limited, priority 2004, dated 2013).

One experiment concerns T cell line KSI 10B7. Briefly: Mapping of epitope(s) recognised by T cell line KSI 10B7, IFN-γ ELISPOT with T2 cells as APC. The class given is cell-based, human. As to conditions: individual peptides, triplicate. On the procedure:
T cells were tested by IFN-γ ELISPOT assays against either the whole BAX peptide mixture (1-23), or different sub-pools (1-9, 10-15, 16-23) or individual peptides (10, 11, 12, 13, 14 and 15). T2 cells (which only express HLA-A*0201) were used as APC. All combinations were tested in triplicate, with 600 spots being the maximum number that could be counted in these assays; and
Further immunomagnetic enrichment, flow sorting and expansion, led to the derivation of a T cell line (KSI 10B7), with 100% specificity for BAX peptides that bound to HLA-A*0201 (data not shown). This T cell line was tested by IFN-γ ELISPOT assays against either the whole BAX peptide mixture (1-23), or different sub-pools (1-9, 10-15, 16-23) or individual peptides (10, 11, 12, 13, 14 and 15). All combinations were tested in triplicate, with 600 spots being the maximum number that could be counted in these assays. KSI 10B7 T cells recognised two similar BAX peptides (10 and 13, FIG. 9). Both these peptides were predicted to bind to HLA-A*0201 (Table 4) and had similar amino acid sequences ([…] and […]). It is believed that the KSI 10B7 T cells recognised the […] sequence that is common to both peptides.

For experiment [1], the system named is CD8+ T cells recognising Rb7 peptide. Briefly: Detection of peptide specific CD8+ T cells in patient blood with fluoresceinated multimeric HLA-A2/peptide complexes. As to conditions: 4 patients tested (3 with cervical cancer, 1 CIN3); low frequency. The class given is cell-based, human. How it is done: T cells reactive against peptides of the invention should be preferentially found in HLA-A2 patients with cervical cancer. Blood samples from 4 patients (3 with cervical cancer, 1 with premalignant disease, CIN3) were tested for the presence of CD8^+ T cells recognising Rb7 peptide. Fluoresceinated multimeric HLA-A2/peptide complexes were used to measure numbers of peptide specific T cells by flow cytometry (10). […] These frequencies were similar to those previously obtained for HPV16 E7 peptide specific T cells (10).

For experiment [2], the system named is IFN-γ producing T cells specific for the immunising peptide. In words: In vivo immunogenicity in HLA-A*0201 transgenic mice, IFN-γ ELISPOT on splenocytes. On the set-up: species or system HLA-A2/Kb transgenic mice. Conditions: responding/immunised mice; 100 μg peptide in incomplete freunds adjuvant, splenocytes after ten to eleven days.
For experiment [3], the system named is CD8+ pentamer+ T lymphocytes. In words: Peptide:HLA-A2 pentamer staining of CD8+ T cells from healthy HLA-A2+ donors after 14 days culture with peptide. It counts as cell-based, human. On the procedure:
On day 0 and day 14 days, the numbers of peptide specific CD8^+ T cells were measured using appropriate fluoresceinated peptide:HLA-A2 pentamers. These were analysed on a flow cytometer and expressed as % of gated cells, excluding dead and […] cells.

In the case of IMGWTLDFL [BAX peptide 13], the “Recognition by KSI 10B7 T cells” value in the experiment with T cell line KSI 10B7 is “recognised”.

As for “Rb7: peptide from Rb485-493 (Rb7) protein, derived from human Rb protein (SLLACALEV)”, the “Patients in whose blood T cells specific for Rb7 peptide could be detected” value in experiment [1] was determined as 2 patients. Moreover, the “Mice with significant T cell responses (IFN-γ ELISPOT)” value in experiment [2] is given as 7/10. Besides, the “Frequency of peptide specific T lymphocytes, in words” value in experiment [3] (8 healthy donors (all HLA-A2+)) is given as “variable but generally low frequencies”. Moreover, the “Healthy donors in whom T lymphocytes recognising the peptide could be detected” value in experiment [3] (8 healthy donors (all HLA-A2+) tested) is 8 healthy donors. In addition, the “Frequency of CD8+ pentamer+ cells” value in experiment [3] (healthy donor 1, 14 days culture with peptide) is recorded as 1/2500; in experiment [3] (healthy donor 2, 14 days culture with peptide), 1/1000; in experiment [3] (healthy donor 3, 14 days culture with peptide) it was 1/1000; in experiment [3] (healthy donor 4, 14 days culture with peptide), 1/909; in experiment [3] (healthy donor 5, 14 days culture with peptide), 1/120; in experiment [3] (healthy donor 6, 14 days culture with peptide) it was 1/3333. The “Frequency of CD8+ pentamer+ cells” value is 1/2000 in experiment [3] (healthy donor 7, 14 days culture with peptide) and 1/2500 in experiment [3] (healthy donor 8, 14 days culture with peptide).

Take TIMGWTLDFL [BAX peptide 10]: the “Recognition by KSI 10B7 T cells” value in the experiment on T cell line KSI 10B7 is on record as “recognised”.
